Reference: the supplement of paper PMC10307832

Key:
Test in all cases: relative viability (nuclei count vs DMSO), 5 days (fraction); higher = more cells survive
CAL-12T = test system: CAL-12T
Outline: (§1)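 Medians of duplicate plates are given as relative viability. That measure is the nuclei count in treated wells divided by the count in vehicle wells. Counts were taken on 4× images of lung cancer cell lines in 1536-well plates, 5 days after pin-tool dosing the day after seeding with one drug alone or a fixed anchor-drug dose plus five library-drug doses (not always all listed) in √10 steps.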

NCI-H460 = test system: NCI-H460
Outline: as §1

NCI-H1563 = test system: NCI-H1563
Outline: as §1

NCI-H1651 = test system: NCI-H1651
Outline: as §1

HCC-44 = test system: HCC-44
Outline: as §1

LK-2 = test system: LK-2
Outline: as §1

NCI-H520 = test system: NCI-H520
Outline: as §1

HCC-15 = test system: HCC-15
Outline: as §1

EKVX = test system: EKVX
Outline: as §1

NCI-H358 = test system: NCI-H358
Outline: as §1

NCI-H838 = test system: NCI-H838
Outline: as §1

COR-L 105 = test system: COR-L 105
Outline: as §1

NCI-H322M = test system: NCI-H322M
Outline: as §1

LU99A = test system: LU99A
Outline: as §1

201T = test system: 201T
Outline: as §1

NCI-H2023 = test system: NCI-H2023
Outline: as §1

NCI-H727 = test system: NCI-H727
Outline: as §1

PC-3 [JPC-3] = test system: PC-3 [JPC-3]
Outline: as §1

EMC-BAC-2 = test system: EMC-BAC-2
Outline: as §1

ABC-1 = test system: ABC-1
Outline: as §1

BEN = test system: BEN
Outline: as §1

## Nc1cccc2c1CN(C1CCC(=O)NC1=O)C2=O (stereo unspecified) [Lenalidomide] + Cc1nc(NC(=O)N2CCC[C@H]2C(N)=O)sc1-c1ccnc(C(C)(C)C(F)(F)F)c1 [Alpelisib] (partner 2 µM)
CAL-12T; first compound 0.253 µM
  relative viability: 1.09
CAL-12T; first compound 0.8 µM
  relative viability: 1.33
CAL-12T; first compound 2.53 µM
  relative viability: 1.52
CAL-12T; first compound 8 µM
  relative viability: 1.36
NCI-H460; first compound 0.253 µM
  relative viability: 0.363
NCI-H460; first compound 0.8 µM
  relative viability: 0.492
NCI-H460; first compound 2.53 µM
  relative viability: 0.667
NCI-H460; first compound 8 µM
  relative viability: 0.57
NCI-H1563; first compound 0.253 µM
  relative viability: 0.843
NCI-H1563; first compound 0.8 µM
  relative viability: 0.908
NCI-H1563; first compound 2.53 µM
  relative viability: 0.829
NCI-H1563; first compound 8 µM
  relative viability: 0.87
NCI-H1651; first compound 0.253 µM
  relative viability: 0.894
NCI-H1651; first compound 0.8 µM
  relative viability: 1.14
NCI-H1651; first compound 2.53 µM
  relative viability: 1.04
NCI-H1651; first compound 8 µM
  relative viability: 1.07
HCC-44; first compound 0.253 µM
  relative viability: 0.865
HCC-44; first compound 0.8 µM
  relative viability: 0.594
HCC-44; first compound 2.53 µM
  relative viability: 0.821
HCC-44; first compound 8 µM
  relative viability: 0.663
LK-2; first compound 0.253 µM
  relative viability: 1.11
LK-2; first compound 2.53 µM
  relative viability: 1.09
LK-2; first compound 8 µM
  relative viability: 1.03
NCI-H520; first compound 0.253 µM
  relative viability: 0.88
NCI-H520; first compound 0.8 µM
  relative viability: 0.922
NCI-H520; first compound 2.53 µM
  relative viability: 1.15
NCI-H520; first compound 8 µM
  relative viability: 0.779
HCC-15; first compound 0.253 µM
  relative viability: 1.02
HCC-15; first compound 2.53 µM
  relative viability: 0.886
HCC-15; first compound 8 µM
  relative viability: 0.865
EKVX; first compound 0.253 µM
  relative viability: 0.803
EKVX; first compound 0.8 µM
  relative viability: 0.95
EKVX; first compound 2.53 µM
  relative viability: 0.931
EKVX; first compound 8 µM
  relative viability: 0.772
NCI-H358; first compound 0.253 µM
  relative viability: 0.902
NCI-H358; first compound 0.8 µM
  relative viability: 0.834
NCI-H358; first compound 2.53 µM
  relative viability: 0.838
NCI-H358; first compound 8 µM
  relative viability: 1.06
NCI-H838; first compound 0.253 µM
  relative viability: 0.97
NCI-H838; first compound 0.8 µM
  relative viability: 1
NCI-H838; first compound 2.53 µM
  relative viability: 1.25
NCI-H838; first compound 8 µM
  relative viability: 0.896
COR-L 105; first compound 0.253 µM
  relative viability: 0.982
COR-L 105; first compound 0.8 µM
  relative viability: 0.81
COR-L 105; first compound 2.53 µM
  relative viability: 1.07
COR-L 105; first compound 8 µM
  relative viability: 0.994
NCI-H322M; first compound 0.253 µM
  relative viability: 0.745
NCI-H322M; first compound 0.8 µM
  relative viability: 0.887
NCI-H322M; first compound 2.53 µM
  relative viability: 0.837
NCI-H322M; first compound 8 µM
  relative viability: 0.66
LU99A; first compound 0.253 µM
  relative viability: 0.47
LU99A; first compound 0.8 µM
  relative viability: 0.501
LU99A; first compound 2.53 µM
  relative viability: 0.501
LU99A; first compound 8 µM
  relative viability: 0.317
201T; first compound 0.253 µM
  relative viability: 1.11
201T; first compound 0.8 µM
  relative viability: 1.15
201T; first compound 2.53 µM
  relative viability: 1.06
201T; first compound 8 µM
  relative viability: 0.984
NCI-H2023; first compound 0.253 µM
  relative viability: 0.594
NCI-H2023; first compound 0.8 µM
  relative viability: 0.745
NCI-H2023; first compound 2.53 µM
  relative viability: 0.697
NCI-H2023; first compound 8 µM
  relative viability: 0.61
NCI-H727; first compound 0.253 µM
  relative viability: 0.546
NCI-H727; first compound 2.53 µM
  relative viability: 0.543
NCI-H727; first compound 8 µM
  relative viability: 0.553
PC-3 [JPC-3]; first compound 0.253 µM
  relative viability: 0.992
PC-3 [JPC-3]; first compound 0.8 µM
  relative viability: 0.981
PC-3 [JPC-3]; first compound 2.53 µM
  relative viability: 1.09
PC-3 [JPC-3]; first compound 8 µM
  relative viability: 1.05
EMC-BAC-2; first compound 0.253 µM
  relative viability: 0.691
EMC-BAC-2; first compound 0.8 µM
  relative viability: 0.706
EMC-BAC-2; first compound 2.53 µM
  relative viability: 0.762
EMC-BAC-2; first compound 8 µM
  relative viability: 0.625
ABC-1; first compound 0.253 µM
  relative viability: 0.948
ABC-1; first compound 0.8 µM
  relative viability: 0.996
ABC-1; first compound 2.53 µM
  relative viability: 1.02
ABC-1; first compound 8 µM
  relative viability: 1.01
BEN; first compound 0.253 µM
  relative viability: 1.05
BEN; first compound 0.8 µM
  relative viability: 1.01
BEN; first compound 2.53 µM
  relative viability: 1.16
BEN; first compound 8 µM
  relative viability: 0.788
